For series [1], the system named is U87Mg (human glioblastoma). Kind of series: Cytotoxic MTT test, U87Mg. It is filed as cell-based. To be noted: U87Mg cells, 72 h. An excerpt: (§1) Cytotoxic MTT test on cell lines derived from normal tissues and tumors were used for assessing the antitumor activity of the novel compounds in vitro. We used namely the lines K562 (human myeloid leukemia), K562-tax (human myeloid leukemia resistant to taxol and overexpressing the protein of multiple drug resistance PgP), CEM (T-lymfoblastic leukemia), CEM-DNR-bulk (T-lymfoblastic leukemia resistant to doxorubicin, lacking the expression of the target gene for topoisomerase II alfa inhibitors and expressing the multiple drug resistance protein MRP1), line A549 (human lung adenocarcinoma), line HT-29 (human colorectal adenocarcinoma), MCF-7 (human breast adenocarcinoma, p53 wild type), HCT116 p53wt (human colorectal adenocarcinoma, wild-type p53), HCT116 p53mut (human colorectal adenocarcinoma with mutated p53), U87Mg (human glioblastoma). Expression characteristics, sensitivity profiles to classical antitumor drugs and methodology of the cytotoxic MTT test were repeatedly published (Nosková V. et al., Neoplasma 2002, S arek J. et al., J. Med. Chem., 2003, Dzubák P. et al., Bioorg. Med. Chem., 2006).
(§2) The MTT test was carried out according to the following procedure. The tested compound in six dilutions (final concentration of 250 μmol/l, another five concentrations were obtained by 4-fold, 16-fold, 64-fold, 256-fold and 1024-fold dilution of this solution) was added to tissue culture of cells in the cultivation plate wells. Each concentration was tested in doublet. The cell suspension was incubated in the environment containing the tested compound for 72 h at 37° C., in 5% CO2 atmosphere and 100% humidity. MTT—[3-(4,5-dimethylthiazol-2-yl)-2,5-difenyl-2H-tetrazolium bromid]—was then added to each well and the incubation was continued for additional 4 h. The incubation was finished by an addition of sodium dodecansulphonate and the percentage of surviving cells was determined spectrophotometrically at 540 nm. The concentration lethal for 50% of the tumor cells—IC50—was calculated from dose-response curves.

The subject of series [2] is K562-tax (human myeloid leukemia resistant to taxol). Kind of series: Cytotoxic MTT test, K562-tax. It is filed as cell-based. To be noted: K562-tax cells, 72 h.
Excerpt: as §1, §2

Series [3] has as its system MCF-7 (human breast adenocarcinoma, p53 wild type). Kind of series: Cytotoxic MTT test, MCF-7. The format is cell-based. The conditions noted are these: 72 h.
Excerpt: as §1, §2

Series [4] relates to CEM-DNR-bulk (T-lymfoblastic leukemia resistant to doxorubicin). Kind of series: Cytotoxic MTT test, CEM-DNR-bulk. It is filed as cell-based. To be noted: CEM-DNR-BULK cells, 72 h.
Excerpt: as §1, §2

In series [5] the test system is HT-29 (human colorectal adenocarcinoma). Kind of series: Cytotoxic MTT test, HT-29. The conditions noted are these: HT-29 cells, 72 h. The format is cell-based.
Excerpt: as §1, §2

Series [6] has as its system HCT116 p53mut (human colorectal adenocarcinoma with mutated p53). The series can be described thus: Cytotoxic MTT test, HCT116 p53mut. To be noted: 72 h. It is filed as cell-based.
Excerpt: as §1, §2

Series [7] deals with CEM (T-lymfoblastic leukemia). Kind of series: Cytotoxic MTT test, CEM. The conditions noted are these: CEM cells, 72 h. It is filed as cell-based.
Excerpt: as §1, §2

The test system of another series is PC-3. Kind of series: Cytotoxic MTT test, PC-3. To be noted: PC-3 cells, 72 h. The format is cell-based.
Series [8] has as its system K562 (human myeloid leukemia). The series can be described thus: Cytotoxic MTT test, K562. The conditions noted are these: K562 cells, 72 h. The format is cell-based.
Excerpt: as §1, §2

Series [9] concerns HCT116 p53wt (human colorectal adenocarcinoma, wild-type p53). The series can be described thus: Cytotoxic MTT test, HCT116 p53wt. It is filed as cell-based. To be noted: 72 h.
Excerpt: as §1, §2

A short description of series [10]: Storage stability of cyclodextrin solution. It is filed as physicochemical. To be noted: solution of 3a with 2-hydroxypropyl-γ-cyclodextrin in water/propylene glycol, freezer at −20 C, several months. On the procedure:
2-hydroxypropyl-γ-cyclodextrin (7.00 g) was dissolved under vigorous stirring and at the temperature of 50° C. in a mixture of water (14.0 ml) and propylene glycol (6.0 ml). 2-deoxy galactoside 3a (1.00 g) is then added at once into the resulting colourless viscous solution and the mixture is vigorously stirred at the temperature of 50° C. Usually, 20 min is needed for complete dissolution. After complete dissolution of the triterpenoid, the resulting bright solution is cooled down to room temperature, filtered by an injection syringe filter (hydrophilic, pore size 0.22 μm) in order to be sterile and is placed to a refrigerator. […] The thus prepared formulation can be used for oral or, after optionally adding a saline solution, for intravenous administration.

Results on 6 compounds are retold here after patent publication US8680251B2, “Triterpenoid 2-deoxy glycosides, method of preparation thereof and use thereof as medicaments” (Univerzita Palackeho V Olomouci, priority 2008, dated 2014).

Take `CC(=O)OC[C@H]1O[C@H](OC[C@@]23CC[C@]4(C)C(CCC5[C@@]6(C)CC[C@H](OC(C)=O)C(C)(C)C6CC[C@]54C)C2=C(C(C)C)C(=O)C3)C[C@@H](OC(C)=O)[C@H]1OC(C)=O` (stereo partly shown) [Compound 1a]: the IC50 in [1] was at least 250 µM; in series [2], 9.8 µM; in series [3] (MCF-7 cells), 11.4 µM; in series [4], 12.5 µM; in series [5], 11.4 µM; in series [6] (HCT116 p53 mut cells) it was 8.8 µM. The IC50 in series [7] is 1.8 µM; in the series on PC-3 it was 23.5 µM; in series [8] it was 2.4 µM; in [9] (HCT116 p53wt cells), 7.9 µM.

With `CC(=O)OC[C@H]1O[C@H](OC[C@@]23CC[C@]4(C)C(CCC5[C@@]6(C)CC[C@H](OC(C)=O)C(C)(C)C6CC[C@]54C)C2=C(C(C)C)C(=O)C3)C[C@@H](OC(C)=O)[C@@H]1OC(C)=O` (stereo partly shown) [Compound 1b], the IC50 is at least 250 µM in series [1]; 9.5 µM in series [2]; 17 µM in series [3] (MCF-7 cells); 41.5 µM in series [4]; 10.1 µM in series [5]; 12.4 µM in series [6] (HCT116 p53 mut cells). Besides, the IC50 amounted to 9.2 µM in series [7], 39.3 µM in the series with PC-3, 6.4 µM in [8] and 8.6 µM in series [9] (HCT116 p53wt cells).

On to `CC(=O)OC[C@H]1O[C@H](OC[C@@]23CC[C@]4(C)C(CCC5[C@@]6(C)CC[C@H](OC(C)=O)C(C)(C)C6CC[C@]54C)C2=C(C(C)C)C(=O)C3)C[C@@H](Br)[C@@H]1OC(C)=O` (stereo partly shown) [Compound 1c], for which the 50% inhibitory concentration (IC50) in series [1] is at least 250 µM; in series [2], 22.6 µM; in series [3] (MCF-7 cells), 35.2 µM; in series [4] it was 27 µM; in series [5], 40.9 µM; in [6] (HCT116 p53 mut cells) it was 14 µM. The half-inhibitory concentration (IC50) in series [7] is 3.8 µM; in the series on PC-3, at least 250 µM; in [8], 9 µM; in [9] (HCT116 p53wt cells) it was 19.1 µM.

In the case of `COC(=O)[C@@]12CC[C@]3(C)C(CCC4[C@@]5(C)CC[C@H](OC6CC(OC(C)=O)C(OC(C)=O)C(COC(C)=O)O6)C(C)(C)C5CC[C@]43C)C1=C(C(C)C)C(=O)C2` (stereo partly shown) [Compound 2b], the IC50 in series [1] (Homo sapiens, U-87 MG) was at least 250 µM; in series [2] (Homo sapiens), 3 µM; in [3] (Homo sapiens, MCF7, MCF-7 cells), 2.5 µM; in [4], 25 µM; in series [5] (Homo sapiens) it was 2.4 µM; in [6] (Homo sapiens, HCT-116, HCT116 p53 mut cells) it was 3.5 µM. For the same compound, the IC50 in [7] (Homo sapiens, CCRF-CEM) is 0.6 µM; with PC-3 (Homo sapiens), 22.1 µM; in series [8] (Homo sapiens) it was 0.6 µM; in series [9] (Homo sapiens, HCT-116, HCT116 p53wt cells) it was 1.6 µM.

Turning to `COC(=O)[C@@]12CC[C@]3(C)C(CCC4[C@@]5(C)CC[C@H](O[C@@H]6C[C@@H](O)[C@@H](O)[C@@H](CO)O6)C(C)(C)C5CC[C@]43C)C1=C(C(C)C)C(=O)C2` (stereo partly shown) [Compound 3a], the IC50 in series [1] was 53 µM; in series [2] it was 15.9 µM; in [3] (MCF-7 cells), 13.6 µM; in series [4], 34.4 µM; in series [5], 17.8 µM; in series [6] (HCT116 p53 mut cells), 17.5 µM. Further, the half-maximal inhibitory concentration (IC50) was found to be 4.7 µM in series [7], 11.2 µM with PC-3, 11.5 µM in [8] and 10.3 µM in series [9] (HCT116 p53wt cells). The decomposition on storage result in series [10] is on record as “without any detectable decomposition”.

Regarding `COC(=O)[C@@]12CC[C@]3(C)C(CCC4[C@@]5(C)CC[C@H](O[C@@H]6C[C@@H](O)[C@H](O)[C@@H](CO)O6)C(C)(C)C5CC[C@]43C)C1=C(C(C)C)C(=O)C2` (stereo partly shown) [Compound 3b], the IC50 was 42.7 µM in series [1]; 12.9 µM in [2]; 18.4 µM in series [3] (MCF-7 cells); 25 µM in series [4]; 18.9 µM in series [5]; 21 µM in series [6] (HCT116 p53 mut cells). Besides, the half-maximal inhibitory concentration (IC50) in series [7] stood at 6.2 µM; in the series on PC-3 it was 36.4 µM; in series [8], 11.6 µM; in series [9] (HCT116 p53wt cells), 11.5 µM.
